Measurements: patent US20040048866A1 (priority 2002, published 2004)

Molecular target: T1, α1 and β1 subunits of guanylate cyclase (sGC), expressed in Sf9 cells (Homo sapiens, UniProt Q02108+Q02153)
T1 construct: made in house; host or cells: Sf9 insect cells (baculovirus co-infection); high-speed supernatant used unpurified
T1 sequence (Q02108 1-690): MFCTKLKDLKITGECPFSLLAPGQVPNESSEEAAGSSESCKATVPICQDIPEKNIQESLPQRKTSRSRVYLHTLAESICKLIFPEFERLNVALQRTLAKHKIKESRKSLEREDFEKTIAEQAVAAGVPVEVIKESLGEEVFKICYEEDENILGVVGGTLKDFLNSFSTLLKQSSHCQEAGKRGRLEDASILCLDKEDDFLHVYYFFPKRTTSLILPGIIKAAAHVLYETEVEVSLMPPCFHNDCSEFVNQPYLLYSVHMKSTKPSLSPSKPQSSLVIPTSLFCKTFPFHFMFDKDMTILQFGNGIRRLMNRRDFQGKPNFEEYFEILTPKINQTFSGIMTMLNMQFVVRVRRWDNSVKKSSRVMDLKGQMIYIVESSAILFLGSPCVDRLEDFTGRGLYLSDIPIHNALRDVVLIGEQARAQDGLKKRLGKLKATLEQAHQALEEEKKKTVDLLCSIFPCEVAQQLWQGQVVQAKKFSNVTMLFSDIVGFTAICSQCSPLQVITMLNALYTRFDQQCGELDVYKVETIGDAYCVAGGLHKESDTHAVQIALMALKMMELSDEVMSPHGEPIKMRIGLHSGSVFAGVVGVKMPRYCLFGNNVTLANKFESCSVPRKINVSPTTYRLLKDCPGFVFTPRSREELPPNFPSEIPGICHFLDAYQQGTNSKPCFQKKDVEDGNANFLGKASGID
T1 sequence (Q02153 1-619): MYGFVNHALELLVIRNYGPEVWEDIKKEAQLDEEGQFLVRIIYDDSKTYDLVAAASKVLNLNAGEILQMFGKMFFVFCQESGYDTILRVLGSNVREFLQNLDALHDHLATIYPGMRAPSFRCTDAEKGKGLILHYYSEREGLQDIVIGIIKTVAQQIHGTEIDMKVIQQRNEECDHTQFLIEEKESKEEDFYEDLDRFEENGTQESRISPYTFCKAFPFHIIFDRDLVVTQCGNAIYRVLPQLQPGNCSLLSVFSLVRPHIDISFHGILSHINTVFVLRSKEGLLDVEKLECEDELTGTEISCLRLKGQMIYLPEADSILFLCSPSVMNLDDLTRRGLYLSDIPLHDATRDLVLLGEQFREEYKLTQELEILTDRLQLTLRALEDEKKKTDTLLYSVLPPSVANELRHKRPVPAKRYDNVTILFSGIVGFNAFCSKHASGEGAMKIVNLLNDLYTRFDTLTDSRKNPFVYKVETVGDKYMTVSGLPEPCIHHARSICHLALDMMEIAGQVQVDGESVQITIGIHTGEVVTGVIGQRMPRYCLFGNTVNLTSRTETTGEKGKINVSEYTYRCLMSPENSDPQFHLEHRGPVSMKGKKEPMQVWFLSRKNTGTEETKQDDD
Assay: Guanylate Cyclase Assay (formation of cyclic GMP from GTP)
Type: biochemical
Conditions: for Mean activation at 100 μM: (activity at 100 μM with 1 μM SNP − activity at 100 μM)/(activity of SNP at 1 μM − basal activity of sGC); for Mean efficacy at 100 μM with 1 μM of SNP, [% of YC-1]: compound at 100 μM with 1 μM sodium nitroprusside (SNP), normalized to 100 μM YC-1 (without SNP) as 100%; for Emax at 100 µM / Mean basal efficacy at 100 μM, [% of YC-1]: compound at 100 μM without SNP, normalized to activity of 100 μM YC-1 (without SNP) as 100%; for Emax at 100 µM: read-out: Mean basal efficacy at 100 μM, [% of YC-1]
Procedure: Sf9 cells were cultured in Sf-90011 medium supplemented with 10% (v/v) fetal calf serum at 28° C. to give a count of 6×10^5 cells/ml. The cells were then infected with a mixture of the virus stocks for the α1 and β1 subunits of guanylate cyclase at a multiplicity of infection of 0.1 pfu/cell. The cells were harvested 72 hours after infection and were pelleted by centrifugation. The resulting cell pellets were homogenized with Polytron homogenizer in 3 volumes of 20 mM Tris-HCl (pH 7.6) containing 1 mM EDTA, 5 mM dithiothreitol, 90 mM NaCl, 10% glycerol, and protease inhibitors mix (Roche Molecular Biochemicals). The homogenate was centrifuged at 50,000×g for 60 minutes and the supernatant was aliquotted and stored at −80° C.
Compounds of the present invention were dissolved in DMSO to make 100 mM and saved as stocks at −20° C. When compounds were tested, 10-fold concentrated solutions with 10% DMSO were prepared. 10 μl of 10-fold concentrated compound solutions were added to the reaction mixture total of 100 μl.
Guanylate cyclase activity was measured by the formation of cyclic GMP from GTP in a total volume of 100 μl. Guanylate cyclase-expressed Sf9 cell high-speed supernatant (Sf9 high-speed sup) was used as an enzyme source for the assay. The reaction mixture containing 0.1 μl enzyme of Sf9 high-speed sup, compound solution, 50 mM Tris-HCl (pH 7.6), 4 mM MgCl2, 0.5 mM IBMX, 15 mM creatine phosphate, 20 μg creatine phosphokinase, 0.1% BSA and 1 mM GTP were incubated at 37° C. for 15 minutes. After the reaction, 0.9 ml of 50 mM sodium acetate buffer (pH 5.8) was added followed by boiling for 3 minutes to stop the reaction. The solution was centrifuged at 3000 rpm for 15 minutes at room temperature and cyclic GMP in 20 μl of the resulting supernatant was measured according to the protocol of Amersham cyclic GMP enzymeimmunoassay system (Amersham, RPN 226).
Compounds of the present invention were tested at 100 μM with and without 1 μM of sodium nitroprusside (SNP). YC-1 was included as a standard for each assay. The data was normalized with the activity of 100 μM YC-1 (without SNP) as 100%. Mean basal efficacy, in Table 1, was expressed as a percentage of 100 μM YC-1 (without SNP).
The mean activation, in Table 1, was calculated based on the formula: (activity of compound of the present invention at 100 μM with 1 μM SNP)−(activity of compound of on at 100 μM)/(activity of SNP at 1 μM)−(basal activity of sGC).

Compound	Mean activation at 100 μM	Mean efficacy at 100 μM with 1 μM of SNP, [% of YC-1]	Emax at 100 µM [%]	Mean basal efficacy at 100 μM, [% of YC-1]
O=C(NCC(O)c1ccccc1)c1ccc(Oc2nn(Cc3ccccc3)c3ccccc23)o1 (centres unmarked) [Example 9, 5-[(1-benzyl-1H-indazol-3-yl)oxy]-N-(2-hydroxy-2-phenylethyl)-2-furamide]	1.6	13 % of YC-1	0	
O=C(NCCN1CCOCC1)c1ccc(Oc2nn(Cc3ccccc3)c3ccccc23)o1 [Example 10, 5-[(1-benzyl-1H-indazol-3-yl)oxy]-N-[2-(4-morpholinyl)ethyl]-2-furamide]	2.0	11 % of YC-1	1	
OCc1ccc(-c2nn(Cc3ccccc3)c3ccccc23)o1 [YC-1, reference compound]	2.7	224 % of YC-1		100 % of YC-1
O=C(O)c1ccccc1Oc1nn(Cc2ccccc2)c2ccccc12 [Example 15, 2-[(1-benzyl-1H-indazol-3-yl)oxy]benzoic acid]	2.6	47 % of YC-1	4	
CCCC(CO)NC(=O)c1ccccc1Oc1nn(Cc2ccccc2)c2ccccc12 (centres unmarked) [Example 21, 2-[(1-benzyl-1H-indazol-3-yl)oxy]-N-[1-(hydroxymethyl)butyl]benzamide]	1.9	15 % of YC-1	5	
CN(C)CCCNC(=O)c1ccccc1Oc1nn(Cc2ccccc2)c2ccccc12 [Example 18, 2-[(1-benzyl-1H-indazol-3-yl)oxy]-N-[3-(dimethylamino)propyl]benzamide]	1.5	10 % of YC-1	5	
O=C(NN1CCOCC1)c1ccccc1Oc1nn(Cc2ccccc2)c2ccccc12 [Example 25]	1.9	14 % of YC-1		4 % of YC-1
c1ccc(Cn2nc(Oc3ncccn3)c3ccccc32)cc1 [Example 12, 1-benzyl-3-(2-pyrimidinyloxy)-1H-indazole]	2.6	43 % of YC-1	-1	
O=C(NCC(O)c1ccccc1)c1ccccc1Oc1nn(Cc2ccccc2)c2ccccc12 (centres unmarked) [Example 22, 2-[(1-benzyl-1H-indazol-3-yl)oxy]-N-(2-hydroxy-2-phenylethyl)benzamide]	2.1	13 % of YC-1	2	
OCc1ccc(Oc2nn(Cc3ccccc3)c3ccccc23)o1 [Example 1, {5-[(1-benzyl-1H-indazol-3-yl)oxy]-2-furyl}methanol]		38 % of YC-1	9	
c1ccc(Cn2nc(Oc3ccccn3)c3ccccc32)cc1 [Example 11, 1-benzyl-3-(2-pyridinyloxy)-1H-indazole]	2.8	70 % of YC-1	9	
CN1CCCC1CCNC(=O)c1ccccc1Oc1nn(Cc2ccccc2)c2ccccc12 (centres unmarked) [Example 23, 2-[(1-benzyl-1H-indazol-3-yl)oxy]-N-[2-(1-methyl-2-pyrrolidinyl)ethyl]benzamide]	2.2	15 % of YC-1	3	
O=C(O)c1ccc(Cn2nc(OCc3ccccc3)c3ccccc32)o1 [Example 28, 5-{[3-(benzyloxy)-1H-indazol-1-yl]methyl}-2-furoic acid]	1.9	27 % of YC-1	6	
CN(C)CCCN1CCN(C(=O)c2ccccc2Oc2nn(Cc3ccccc3)c3ccccc23)CC1 [Example 17, N-[3-(4-{2-[(1-benzyl-1H-indazol-3-yl)oxy]benzoyl}-1-piperazinyl)propyl]-N,N-dimethylamine]	2.0	14 % of YC-1	4	
O=C(NCCCn1ccnc1)c1ccccc1Oc1nn(Cc2ccccc2)c2ccccc12 [Example 24, 2-[(1-benzyl-1H-indazol-3-yl)oxy]-N-[3-(1H-imidazol-1-yl)propyl]benzamide]	1.7	12 % of YC-1	5	
FC(F)(F)c1cncc(Oc2nn(Cc3ccccc3)c3ccccc23)c1 [Example 13, 1-benzyl-3-{[5-(trifluoromethyl)-3-pyridinyl]oxy}-1H-indazole]	1.4	15 % of YC-1	3	
CN(C)CCCNC(=O)c1ccc(Oc2nn(Cc3ccccc3)c3ccccc23)o1 [Example 5, 5-[(1-benzyl-1H-indazol-3-yl)oxy]-N-[3-(dimethylamino)propyl]-2-furamide]	1.7	65 % of YC-1	4	
CN(C)CCNC(=O)c1ccccc1Oc1nn(Cc2ccccc2)c2ccccc12 [Example 16, 2-[(1-benzyl-1H-indazol-3-yl)oxy]-N-[2-(dimethylamino)ethyl]benzamide]	1.9	15 % of YC-1	6	
